Results on 9 compounds are retold here after PubChem BioAssay AID1259407 (Chemical Carcinogenesis Research Information System (CCRIS), 2018).

The data set relates to CCRIS mutagenicity, Ames/micronucleus/aberration tests. As to the kind of experiment: CCRIS mutagenicity studies.
The mark [1] stands for this setting: Test System: AMES SALMONELLA TYPHIMURIUM, Strain/Indicator: TA98, Metabolic Activation: NONE, Method: STANDARD PLATE.
The mark [2] stands for this setting: Test System: AMES SALMONELLA TYPHIMURIUM, Strain/Indicator: TA98, Metabolic Activation: NONE, Method: PREINCUBATION
[3] abbreviates: Test System: AMES SALMONELLA TYPHIMURIUM, Strain/Indicator: TA100, Metabolic Activation: NONE, Method: PREINCUBATION
The mark [4] stands for this setting: Test System: AMES SALMONELLA TYPHIMURIUM, Strain/Indicator: TA98, Metabolic Activation: RAT, LIVER, S-9, AROCLOR 1254, Method: STANDARD PLATE.
[5] abbreviates: Test System: AMES SALMONELLA TYPHIMURIUM, Strain/Indicator: TA100, Metabolic Activation: NONE, Method: STANDARD PLATE.
Setting [6] is: Test System: AMES SALMONELLA TYPHIMURIUM, Strain/Indicator: TA100, Metabolic Activation: RAT, LIVER, S-9, AROCLOR 1254, Method: STANDARD PLATE.

Active and inactive are the calls of the source. The rule behind the calls is not given here.

Turning to `Oc1ccc(Oc2c(Cl)cc(Cl)cc2Cl)cc1`, the mutagenic call is, setting by setting: (Test System: AMES SALMONELLA TYPHIMURIUM, Strain/Indicator: TA98, Metabolic Activation: S-9, Method: STANDARD PLATE) “inactive; negative”; (Test System: AMES SALMONELLA TYPHIMURIUM, Strain/Indicator: TA100, Metabolic Activation: S-9, Method: STANDARD PLATE) “inactive; negative”; (Test System: AMES SALMONELLA TYPHIMURIUM, Strain/Indicator: YG1021, Metabolic Activation: S-9, Method: STANDARD PLATE) “inactive; negative”; (Test System: AMES SALMONELLA TYPHIMURIUM, Strain/Indicator: YG1024, Metabolic Activation: S-9, Method: STANDARD PLATE) “inactive; negative”; (Test System: AMES SALMONELLA TYPHIMURIUM, Strain/Indicator: YG1026, Metabolic Activation: S-9, Method: STANDARD PLATE) “inactive; negative”; (Test System: AMES SALMONELLA TYPHIMURIUM, Strain/Indicator: YG1029, Metabolic Activation: S-9, Method: STANDARD PLATE) “inactive; negative”.

On to `O=[N+]([O-])c1ccc2cccc3c2c1CC3`, for which the mutagenic call under setting [1] is “active; positive”.

In the case of `[As]`, the mutagenic call reads like this: (End Point: IN VIVO CHROMOSOMAL ABERRATIONS, Test System: BLOOD LYMPHOCYTES, Species: HUMAN, Strain/Sex: MALE, FEMALE, Route: ORAL, DRINKING WATER) “active; positive (structural changes) ; all subjects showed arsenic-related skin lesions”; (End Point: IN VIVO CHROMOSOMAL ABERRATIONS, Test System: PERIPHERAL BLOOD LYMPHOCYTES, Species: HUMAN, Strain/Sex: MALE, FEMALE, Route: DRINKING WATER) “active; positive; exact form of arsenic not given: significant increase in exposed indiv”; (End Point: IN VIVO MICRONUCLEUS, Test System: PERIPHERAL BLOOD LYMPHOCYTES, Species: HUMAN, Strain/Sex: MALE, FEMALE, Route: ORAL, DRINKING WATER) “active; positive; environmental exposure from drinking water”; (End Point: In vivo micronucleus, Test System: Peripheral lymphocytes, Species: Human, Strain/Sex: Male, Route: Inhalation (Occupational)) “inactive; negative”.

For the compound `O=C[C@H](NC(=O)N(CCCl)N=O)[C@@H](O)[C@H](O)[C@H](O)CO`, the mutagenic call (Test System: CHINESE HAMSTER V-79, Strain/Indicator: V-79/6-THIOGUANINE, Metabolic Activation: NONE, Method: STANDARD PLATE) is “active; positive”.

As to `CN1C(=O)CC[C@H]1c1cccnc1`, the mutagenic call runs as follows: under setting [2], “inactive; negative”; (Test System: AMES SALMONELLA TYPHIMURIUM, Strain/Indicator: TA98, Metabolic Activation: RAT, LIVER, S-9, AROCLOR 1254 (5%), Method: PREINCUBATION) “inactive; negative”; under setting [3], “inactive; negative”; (Test System: AMES SALMONELLA TYPHIMURIUM, Strain/Indicator: TA100, Metabolic Activation: RAT, LIVER, S-9, AROCLOR 1254 (5%), Method: PREINCUBATION) “inactive; negative”; (Test System: AMES SALMONELLA TYPHIMURIUM, Strain/Indicator: TA1535, Metabolic Activation: NONE, Method: PREINCUBATION) “inactive; negative”; (Test System: AMES SALMONELLA TYPHIMURIUM, Strain/Indicator: TA1535, Metabolic Activation: RAT, LIVER, S-9, AROCLOR 1254 (5%), Method: PREINCUBATION) “inactive; negative”. For the same compound, the mutagenic call runs as follows: (Test System: AMES SALMONELLA TYPHIMURIUM, Strain/Indicator: TA1537, Metabolic Activation: NONE, Method: PREINCUBATION) “inactive; negative”; (Test System: AMES SALMONELLA TYPHIMURIUM, Strain/Indicator: TA1537, Metabolic Activation: RAT, LIVER, S-9, AROCLOR 1254 (5%), Method: PREINCUBATION) “inactive; negative”; (Test System: AMES SALMONELLA TYPHIMURIUM, Strain/Indicator: TA1538, Metabolic Activation: NONE, Method: PREINCUBATION) “inactive; negative”; (Test System: AMES SALMONELLA TYPHIMURIUM, Strain/Indicator: TA1538, Metabolic Activation: RAT, LIVER, S-9, AROCLOR 1254 (5%), Method: PREINCUBATION) “inactive; negative”.

On to `c1cc2ccc3ccnc4ccc(c1)c2c34`, for which the mutagenic call under setting [1] is “active; positive”, the mutagenic call under setting [4] was “active; positive”, the mutagenic call under setting [5] was “inactive; negative” and the mutagenic call under setting [6] is “active; positive”.

Regarding `CC(C)OC(=O)C(C)(C)Oc1ccc(C(=O)c2ccc(Cl)cc2)cc1`, the mutagenic call is, setting by setting: under setting [1], “inactive; negative”; (Test System: AMES SALMONELLA TYPHIMURIUM, Strain/Indicator: TA98, Metabolic Activation: RAT, LIVER, S-9, PHENOBARBITAL AND 5,6-BENZOFLAVONE, Method: STANDARD PLATE) “inactive; negative”; under setting [5], “inactive; negative”; (Test System: AMES SALMONELLA TYPHIMURIUM, Strain/Indicator: TA100, Metabolic Activation: RAT, LIVER, S-9, PHENOBARBITAL AND 5,6-BENZOFLAVONE, Method: STANDARD PLATE) “inactive; negative”; (Test System: AMES SALMONELLA TYPHIMURIUM, Strain/Indicator: TA1535, Metabolic Activation: NONE, Method: STANDARD PLATE) “inactive; negative”; (Test System: AMES SALMONELLA TYPHIMURIUM, Strain/Indicator: TA1535, Metabolic Activation: RAT, LIVER, S-9, PHENOBARBITAL AND 5,6-BENZOFLAVONE, Method: STANDARD PLATE) “inactive; negative”. Besides, the mutagenic call is “inactive; negative” (Test System: AMES SALMONELLA TYPHIMURIUM, Strain/Indicator: TA1537, Metabolic Activation: NONE, Method: STANDARD PLATE); “inactive; negative” (Test System: AMES SALMONELLA TYPHIMURIUM, Strain/Indicator: TA1537, Metabolic Activation: RAT, LIVER, S-9, PHENOBARBITAL AND 5,6-BENZOFLAVONE, Method: STANDARD PLATE); “inactive; negative” (Test System: E. COLI, Strain/Indicator: WP2 UVRA, Metabolic Activation: NONE, Method: STANDARD PLATE); “inactive; negative” (Test System: E. COLI, Strain/Indicator: WP2 UVRA, Metabolic Activation: RAT, LIVER, S-9, PHENOBARBITAL AND 5,6-BENZOFLAVONE, Method: STANDARD PLATE).

`CC(=O)Nc1ccc(Oc2ccc([N+](=O)[O-])cc2)cc1`: the mutagenic call runs as follows: (Test System: AMES SALMONELLA TYPHIMURIUM, Strain/Indicator: TA98(1,8-DNP6), Metabolic Activation: NONE, Method: PREINCUBATION) “inactive; negative”; (Test System: AMES SALMONELLA TYPHIMURIUM, Strain/Indicator: TA98(1,8-DNP6), Metabolic Activation: RAT, LIVER, S-9, AROCLOR 1254, Method: PREINCUBATION) “inactive; negative”; (Test System: AMES SALMONELLA TYPHIMURIUM, Strain/Indicator: TA98(NR), Metabolic Activation: NONE, Method: PREINCUBATION) “inactive; negative”; (Test System: AMES SALMONELLA TYPHIMURIUM, Strain/Indicator: TA98(NR), Metabolic Activation: RAT, LIVER, S-9, AROCLOR 1254, Method: PREINCUBATION) “inactive; negative”; under setting [2], “active; positive”; (Test System: AMES SALMONELLA TYPHIMURIUM, Strain/Indicator: TA98, Metabolic Activation: RAT, LIVER, S-9, AROCLOR 1254, Method: PREINCUBATION) “active; positive”. The mutagenic call is, setting by setting: (Test System: AMES SALMONELLA TYPHIMURIUM, Strain/Indicator: TA100(NR), Metabolic Activation: NONE, Method: PREINCUBATION) “inactive; negative”; (Test System: AMES SALMONELLA TYPHIMURIUM, Strain/Indicator: TA100(NR), Metabolic Activation: RAT, LIVER, S-9, AROCLOR 1254, Method: PREINCUBATION) “active; positive”; under setting [3], “active; positive”; (Test System: AMES SALMONELLA TYPHIMURIUM, Strain/Indicator: TA100, Metabolic Activation: RAT, LIVER, S-9, AROCLOR 1254, Method: PREINCUBATION) “active; positive”.

Consider `O=C(c1ccccc1)C1OC1c1ccc([N+](=O)[O-])cc1` (stereo not given), for which the mutagenic call reads like this: under setting [1], “inactive; negative”; under setting [4], “inactive; negative”; under setting [5], “inactive; negative”; under setting [6], “inactive; negative”.
